Read-outs that look alike come from different tables or passages of the source. Residues, ends and D or L forms follow the SMILES beside them.
Tests used:
[1] = Degree of sweetening compared with 5% sucrose solution (taste test); set-up: species or system healthy volunteers; conditions: times the sweetening power of sucrose (sucrose = 1), average of 3 taste tests
Experimental: (§1) The taste tests were conducted by three healthy volunteers; the solutions were coded by letter-number combinations and randomized so that the tester could not know which compound he or she tasted. Also the reference solution (5% sucrose) remained part of the randomizing plan initially, for the purpose of general taste characteristics of the compounds.

mice = conditions: for Number of Dead Animals/Number of Animals Utilized: mice, intraperitoneal
[2] = Identification threshold values (cts) of sweeteners (triangle test) and comparison with sucrose; set-up: species or system persons; conditions: for Identification Threshold Values (cts): tap water, pH 6-7 if necessary with NaOH, 5 persons, triangle test, 1 ml samples; for f suc, mol (cts): compound, sweetening power relative to sucrose, molar
Experimental: These sensory investigations were conducted by 5 persons; all samples were encoded by a person not participating in the test. […] Consecutive samples of 1 ml were consumed. The approximate concentration values determined in a preliminary test were inserted, in the main experiment, in the middle of a dilution series. All solutions of a compound were encoded with two water samples (triangle test). The testers must indicate which of the three samples of decreasing concentration are considered to be sweet. The identification threshold value is set forth to be the lowest concentration range (cts) at which the testers still render a correct judgment.

in vivo = conditions: mouse, ip
[3] = General taste evaluation of aqueous solutions in concentration stages 1-8 (blind taste test); set-up: species or system healthy volunteers; conditions: average results of 3 taste tests
Experimental: The following concentrations correspond to the 8 concentration stages tested:
as §1

[4] = literature (Hager's Manual), b158: also determined by all three testers in a blind taste test, cited from earlier work

## NC(=O)c1c(Br)cc(Br)c(CCC(=O)O)c1Br [A, 3-(3-carbamoyl-2,4,6-tribromophenyl)propionic acid]
[1]
  Degree of Sweetening: 6000-7000
mice; intraperitoneal injection in mice
  General compatibility: approximately the same good compatibility as sodium saccharin
mice; 3.0 g/kg BW
  Number of Dead Animals/Number of Animals Utilized: 2/10
mice; 6.0 g/kg BW
  Number of Dead Animals/Number of Animals Utilized: 6/10
mice; 9.0 g/kg BW
  Number of Dead Animals/Number of Animals Utilized: 10/10
[2]
  Identification Threshold Values (cts): 0.6 to 1.4 µmol/L
In vivo
  LD50: ~6000 mg/kg
[3]; 0.781 mg/100 ml (1/6400 of 5% sucrose)
  General Taste Evaluation, concentration stage 7: Sweet
[3]; 1.563 mg/100 ml (1/3200 of 5% sucrose)
  General Taste Evaluation, concentration stage 6: Sweet

## COC(=O)[C@H](Cc1ccccc1)NC(=O)[C@@H](N)CC(=O)O [Aspartame] (H-Asp-Phe-OMe)
[2]
  f suc, mol (cts): 275
  Identification Threshold Values (cts): 20 to 60 µmol/L

## O=S(=O)(O)NC1CCCCC1 [Cyclamate]
[1]
  Degree of Sweetening: < 100
[2]
  f suc, mol (cts): 5.5
  Identification Threshold Values (cts): 1000 to 3000 µmol/L
[4]
  Degree of sweetening known from the literature: 30-70
[4]; listed as Sodium cyclamate
  Degree of sweetening known from the literature: 70

## CCOc1ccc(NC(N)=O)cc1 [Dulcin]
[2]
  f suc, mol (cts): 489
  Identification Threshold Values (cts): 15 to 30 µmol/L

## NC(=O)c1c(I)cc(I)c(CCC(=O)O)c1I [E, 3-(3-carbamoyl-2,4,6-triiodophenyl)propionic acid]
[2]
  Identification Threshold Values (cts): 1.0 to 2.0 µmol/L

## NC(=O)c1c(I)cc(I)c(OCC(=O)O)c1I [F, 3-carbamoyl-2,4,6-triiodophenoxyacetic acid]
[2]
  Identification Threshold Values (cts): 15 to 25 µmol/L

## NC(=O)c1c(Cl)cc(Cl)c(CCC(=O)O)c1Cl [G, 3-(3-carbamoyl-2,4,6-trichlorophenyl)propionic acid]
[2]
  Identification Threshold Values (cts): 2.5 to 4.0 µmol/L

## O=C1NS(=O)(=O)c2ccccc21.[Na] [Sodium Saccharin]
[1]
  Degree of Sweetening: 400
mice; 3.0 g/kg BW
  Number of Dead Animals/Number of Animals Utilized: 0/10
mice; 6.0 g/kg BW
  Number of Dead Animals/Number of Animals Utilized: 5/10
[2]
  f suc, mol (cts): 489
  Identification Threshold Values (cts): 15 to 30 µmol/L
[4]
  Degree of sweetening known from the literature: 400
[3]; 25.0 mg/100 ml (1/200 of 5% sucrose)
  General Taste Evaluation, concentration stage 2: Sweet
[3]; 50.0 mg/100 ml (1/100 of 5% sucrose)
  General Taste Evaluation, concentration stage 1: Sweet

## OC[C@H]1O[C@@](CO)(O[C@H]2O[C@H](CO)[C@@H](O)[C@H](O)[C@H]2O)[C@@H](O)[C@@H]1O [Sucrose]
[1]
  Degree of Sweetening: 1
[2]
  f suc, mol (cts): 1
  Identification Threshold Values (cts): 10000 to 12000 µmol/L

— patent US4522839A, “3-Substituted 2,4,6-trihalogenated benzamides as sweetening agents” (Schering Aktiengesellschaft, priority 1980, dated 1985)
